# How the values were obtained:
# MYB = test: HiBiT protein abundance assay, MYB HiBiT K562 cell line; format: cell-based, human; settings: HiBiT K562 cell line, 24 hours, top dose 10 μM; read-out: Effect on protein abundance, MYB (IC50 category)
# Experimental: (§1) Compounds described herein were used to screen for effects on quantitative protein abundance using a HiBit assay system (Promega). Quantitative protein abundance was determined by measuring the protein levels of HiBit-tagged protein targets expressed in cell culture via luminescence using the Nano-Glo HiBiT Lytic Detection System, which uses a split complementation assay format to reconstitute NanoBiT enzyme to generate a luminescent signal. A protein abundance assay was developed such that endogenous protein targets could be modified with the HiBiT peptide tag and their abundance could be assessed after compound treatment. Briefly, K562 cell lines containing a HiBiT-modification were treated with various compounds described herein (e.g., compounds of Formulas (I), (II), (III), (IV), (V), (VI), (VII), (VIII), or (IX)). After treatment for 24 hours, the protein abundance of a specific target was determined by measuring luminescence.
# (§2) • Promega Nano-Glo HiBiT Lytic Detection System (cat #N3030) • Corning 384-well TC-treated microplates (cat #3570) • Synthego Engineered Cells Knock-In Clones
# (§3) Cells were maintained in IMDM with 10% FBS. Before the assay, cells were diluted with […] growth media (IMDM+[…] media) and were seeded in a 384-well plate at a density of 10,000 cells/well (for each cell line listed in Table 5). Each compound was prepared as a 10-point 3-fold serial dilution in DMSO with the top dose at a final concentration of 10 μM in the well. Unmodified K562 cells were added at the previously specified density with DMSO to serve as an assay baseline and positive control (PC) and DMSO only with the respective modified cell lines was added to the negative control (NC) columns. Final DMSO concentration was kept at or below 0.25%. Treated cell plates were placed in an incubator at 37° C. with […] for 24 hours. After 24 hours, 25 μL of Complete HiBit Lytic reagent was added to each well at room temperature (e.g. one plate requiring 10 mL Lytic Buffer, 100 μL LgBiT Protein, 200 μL Lytic Substrate), shaken for 5 minutes at 600 RPM, then left to sit for 10 minutes for signal to stabilize before reading on a Spark Cyto plate reader (Tecan) with a 500 ms measurement time.
# (§4) To determine compound effects on protein abundance of each target in Table 5, the percent response for each respective cell line was calculated at each compound concentration as follows:
# (§5) For the normalized response at each concentration, a four-parameter logistical regression was fit to the data and the response was interpolated at the […] to determine a concentration for protein abundance at […] the untreated control.
# [1] = system: K562 (human chronic myelogenous leukemia) cells; test: Cell Titer Glo 2.0 cell viability assay; format: cell-based; settings: Homo sapiens, K562, 72 h, K562 cells, 72 hours, Cell Titer Glo 2.0; read-out: K562 GI50
# HTT = test: HiBiT protein abundance assay, HTT HiBiT K562 cell line; format: cell-based, human; settings: HiBiT K562 cell line, 24 hours, top dose 10 μM; read-out: Effect on protein abundance, HTT (IC50 category)
# Experimental: as §1, §2, §3, §4, §5
# Target C = test: HiBiT protein abundance assay, Target C (Promega Nano-Glo HiBiT Lytic Detection System, knock-in K562 cell line); format: cell-based, human; settings: Homo sapiens, K562, 24 h, HiBiT K562 cell line, 24 hours, top dose 10 μM; read-out: Effect on protein abundance, Target C (IC50 category)
# Experimental: as §2, §3, §4, §5
IC50 (MYB) [nM],GI50 [1] [nM],IC50 (HTT) [nM],IC50 (Target C) [nM],Structure (SMILES)
< 100,< 100,< 100,< 100,Cc1c(O)c(-c2ccc3c(=O)n(C4CCNCC4)ccc3n2)cc2cn(C)nc12 [Compound 1234]
1000 to 10000,1000 to 10000,> 10000,1000 to 10000,"Cc1cn2cc(-c3cc(O)c4c(=O)n(C5CCNC5)cnc4c3)cc(C#N)c2n1 (stereo not shown) [Compound 507, 6-[5-hydroxy-4-oxo-3-(pyrrolidin-3-yl)quinazolin-7-yl]-2-methylimidazo[1,2-a]pyridine-8-carbonitrile; trifluoroacetic acid]"
100 to 1000,100 to 1000,100 to 1000,100 to 1000,Cc1cn2nc(-c3cc(N)c4c(=O)n(C5CCNCC5)ncc4c3)cc(C)c2n1 [Compound 566]
< 100,< 100,< 100,100 to 1000,"Cc1cn2cc(-c3ccc4c(=O)n(C5CCNCC5)ccc4n3)cc(F)c2n1 [Compound 1230, 2-(8-fluoro-2-methylimidazo[1,2-a]pyridin-6-yl)-6-(piperidin-4-yl)-1,6-naphthyridin-5(6H)-one]"
100 to 1000,100 to 1000,> 10000,> 10000,Cc1cn2cc(-c3ncc4c(=O)n(C5CCNCC5)c(C)cc4n3)cc(F)c2n1 [Compound 1327]
100 to 1000,1000 to 10000,100 to 1000,100 to 1000,Cc1cn2nc(-c3cc(C)c4c(=O)n([C@H]5CCNC6(CC6)C5)ncc4c3)cc(C)c2n1 [Compound 467]

# More lines, now with the values behind:
Structure (SMILES),IC50 (MYB) [nM],GI50 [1] [nM],IC50 (HTT) [nM],IC50 (Target C) [nM]
Cn1cc2nc(-c3cc(O)c4c(=O)n(C5CCNC6(CC6)C5)ncc4c3)ccc2n1 (stereo not shown) [Compound 562],100 to 1000,100 to 1000,100 to 1000,100 to 1000
Cc1c(O)c(-c2ncc3c(=O)n(C4CC5CC4CN5)ccc3n2)cc2cn(C)nc12 (stereo not shown) [Compound 1325],100 to 1000,100 to 1000,100 to 1000,1000 to 10000
Cc1nc2c(C)cc(-c3cc(O)c4c(=O)n(C5CCNC6(CC6)C5)ncc4c3)cc2o1 (stereo not shown) [Compound 564],100 to 1000,100 to 1000,100 to 1000,100 to 1000
Cc1c(O)c(-c2ncc3c(=O)n(C45CCC(N)(C4)C5)ccc3n2)cc2cn(C)nc12 [Compound 1324],100 to 1000,100 to 1000,1000 to 10000,1000 to 10000
Cc1c(O)c(-c2ncc3c(=O)n([C@H]4C[C@H]5CC[C@@H](C4)N5)ccc3n2)cc2cn(C)nc12 [Compound 1329],< 100,100 to 1000,100 to 1000,100 to 1000
Cn1cc2cc(-c3ccc4c(=O)n([C@H]5CCNC6(CC6)C5)ccc4n3)c(O)cc2n1 [Compound 1245],< 100,100 to 1000,< 100,< 100
"Cc1cn2nc(-c3cc(O)c4c(=O)n(C5CCNC6(CC6)C5)ccc4c3)cc(C)c2n1 (stereo not shown) [Compound 466, 6-(2,8-dimethylimidazo[1,2-b]pyridazin-6-yl)-8-hydroxy-2-(4-azaspiro[2.5]octan-7-yl)isoquinolin-1(2H)-one]",< 100,< 100,< 100,< 100
